Assay results: the NIST ThermoML archive (doi:10.1021/je0501890)

Assay: xn = mol fraction of the nth substance listed
Conditions: 101.33 kPa, Liquid

ClC(Cl)=C(Cl)Cl [tetrachloroethene] + CCCCCCCO
Conditions	mass density, 293.15 K [kg/m3]	mass density, 298.15 K [kg/m3]	mass density, 303.15 K [kg/m3]	viscosity, 293.15 K [mPa·s]	viscosity, 298.15 K [mPa·s]	viscosity, 303.15 K [mPa·s]
x2 = 0.0564	1560.55	1552.56	1544.51	–	–	–
x2 = 0.098	1516.9	1509.2	1501.4	–	–	–
x2 = 0.1052	–	–	–	1.064	0.993	0.961
x2 = 0.152	1462.26	1454.91	1447.45	–	–	–
x2 = 0.2	–	–	–	1.285	1.186	1.116
x2 = 0.2001	1415.53	1408.42	1401.24	–	–	–
x2 = 0.248	1370.53	1363.81	1356.93	–	–	–
x2 = 0.2939	–	–	–	1.569	1.441	1.321
x2 = 0.2944	1328.47	1321.91	1315.32	–	–	–
x2 = 0.3527	1277.56	1271.32	1265.06	–	–	–
x2 = 0.3983	1239.09	1233.07	1227.04	–	–	–
x2 = 0.4073	–	–	–	2.024	1.83	1.661
x2 = 0.4484	1198.21	1192.43	1186.64	–	–	–
x2 = 0.4612	–	–	–	2.292	2.05	1.851
x2 = 0.4982	–	–	–	2.509	2.231	2.002
x2 = 0.5051	1153.53	1148.07	1142.54	–	–	–
x2 = 0.5477	1121.03	1115.76	1110.45	–	–	–
x2 = 0.55	–	–	–	2.827	2.501	2.222
x2 = 0.5992	–	–	–	3.169	2.798	2.462
x2 = 0.6002	1082.09	1077.06	1071.96	–	–	–
x2 = 0.6503	1046.14	1041.3	1036.45	–	–	–
x2 = 0.6926	–	–	–	3.922	3.397	2.958
x2 = 0.7419	983.09	978.66	974.19	–	–	–
x2 = 0.8016	943.84	939.63	935.38	–	–	–
x2 = 0.8034	–	–	–	4.966	4.249	3.631
x2 = 0.8533	910.96	906.93	902.87	–	–	–
x2 = 0.8578	–	–	–	5.52	4.704	4.03
x2 = 0.8961	–	–	–	5.942	5.052	4.324
x2 = 0.8963	884.26	880.43	876.54	–	–	–
x2 = 0.9453	854.68	851.01	847.3	–	–	–
